Target: T1, recombinant human MNL phosphodiesterase type IV B (Homo sapiens, UniProt Q07343)
T1 construct: FLAG; made in house; host or cells: insect cells infected with recombinant baculovirus
Assay: Inhibition of recombinant human mononuclear lymphocyte (MNL) phosphodiesterase type IV B produced in insect cells with a baculovirus vector
Format: biochemical
Settings: remaining enzyme activity versus control
Protocol: Inhibition of Recombinant Human Mononuclear Lymphocyte (MNL) Phosphodiesterase Type IV B Produced in Insect Cells with a Baculovirus Vector
The alleviating and/or curing effect of the instant compounds on allergic and atopic diseases was assessed by an in vitro assay system to detect an inhibiting effect on the recombinant human MNL phosphodiesterase type IV B.
Seventy-two hours after infection with recombinant baculovirus, the insect cells were harvested and pelleted at 500 g for 5 minutes. The cells were lysed in 10 ml lysis-buffer consisting of 20 mM Tris, 10 mM EGTA, 2 mM Na2EDTA, 1% Triton-X-100, 1 mM Na3VO4, 10 mM NaF, 2 μg/ml of leupeptine, pepstatine and aprotinine, 0.3 μg/ml benzamidine and 100 μg/ml TPCK pH 7.5. After 5 minutes on ice, solubilized cells were centrifuged at 4000 rpm for 15 minutes at 4° C. The resulting supernatant was filtered through a 0.45 μm filter (Millipore) and brought to TBS buffer (50 mM Tris, 150 mM NaCl pH 7.4).
The supernatant containing phosphodiesterase (PDE) type IV B, was subsequently loaded onto a 5 ml anti-FLAG-M2 affinity gel column, previously activated with 5 ml 100 mM glycine pH 3.5 and equilibrated with 20 ml 50 mM Tris, 150 mM NaCl pH 7.4. After washing the column with equilibration buffer, PDE IV was eluted in 1.5 ml fractions containing 37.5 μl IM Tris pH 8. The fractions were dialyzed overnight against 20 mM Tris, 2mM Na2EDTA and 400 mM NaCl pH 7.5 and tested for PDE IV activity. Identification was done on SDS PAGE and Western Blot (anti-FLAG-M2). Active fractions were pooled, brought to 10% glycerol and stored at −70° C.
The incubation mixture (pH 8) (200 μl) contained 20 mM Tris, 10 mM magnesium sulphate, 0.8 μM ^3H-cAMP (310 mCi/mmole) and the phosphodiesterase type IV, the amount depending on the enzymatic activity. […]
The inhibiting effect of the present compounds on recombinant human MNL phosphodiesterase PDE IV B was measured at different concentrations of the instant compounds.

T1 sequence (Q07343 whole entry): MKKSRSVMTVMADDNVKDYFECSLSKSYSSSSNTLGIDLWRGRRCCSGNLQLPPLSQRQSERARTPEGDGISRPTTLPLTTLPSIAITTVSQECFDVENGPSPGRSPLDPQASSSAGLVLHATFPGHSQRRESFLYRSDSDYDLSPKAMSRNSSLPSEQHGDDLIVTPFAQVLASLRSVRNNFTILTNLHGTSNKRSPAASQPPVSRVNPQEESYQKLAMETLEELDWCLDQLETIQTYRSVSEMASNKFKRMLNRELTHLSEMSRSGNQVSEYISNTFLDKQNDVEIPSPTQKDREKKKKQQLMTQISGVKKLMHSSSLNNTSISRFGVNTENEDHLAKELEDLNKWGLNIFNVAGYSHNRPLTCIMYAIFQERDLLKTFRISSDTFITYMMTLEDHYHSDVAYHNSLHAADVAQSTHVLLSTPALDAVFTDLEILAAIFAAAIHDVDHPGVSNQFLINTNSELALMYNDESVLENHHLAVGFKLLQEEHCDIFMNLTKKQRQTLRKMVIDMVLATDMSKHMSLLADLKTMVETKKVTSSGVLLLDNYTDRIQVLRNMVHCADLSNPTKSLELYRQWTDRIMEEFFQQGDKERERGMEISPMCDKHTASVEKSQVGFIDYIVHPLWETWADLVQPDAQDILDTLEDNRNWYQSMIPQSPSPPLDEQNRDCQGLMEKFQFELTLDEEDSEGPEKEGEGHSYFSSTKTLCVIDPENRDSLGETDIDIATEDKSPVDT

SMILES | % Activity (% activity of PDE IV B versus control) (Test Dose 10^−7 M) | % Activity (% activity of PDE IV B versus control) (Test Dose 10^−6 M)
COc1ccc(C(C)Cn2cc[nH]c2=NC#N)nc1OC1CCCC1 (racemic) [Compound 22, (±)-[1-[2-[6-(cyclopentyloxy)-5-methoxy-2-pyridinyl]propyl]-1,3-dihydro-2H-imidazol-2-ylidene]cyanamide] | 25% | –
COc1cnc(C(C)(O)Cn2cc[nH]c2=O)cc1OCCCCCc1ccccc1 (racemic) [Compound 23, (±)-1,3-dihydro-1-[2-hydroxy-2-[5-methoxy-4-[(5-phenylpentyl)oxy]-2-pyridinyl]propyl]-2H-imidazol-2-one] | – | 35%
COc1cnc(C(O)Cn2cc[nH]c2=O)cc1OCCCCCc1ccccc1 (stereo not drawn) [Compound 18, 1,3-dihydro-1-[2-hydroxy-2-[5-methoxy-4-[(5-phenylpentyl)oxy]-2-pyridinyl]ethyl]-2H-imidazol-2-one] | – | 77%
